Assay results reported in the supplement of paper PMC10307832.

Tests used:
Experiment in all cases: relative viability (nuclei count vs DMSO), 5 days (fraction); higher = more cells survive
MK-2206 + Alpelisib = compound: NC1(c2ccc(-c3nc4ccn5c(=O)[nH]nc5c4cc3-c3ccccc3)cc2)CCC1 [MK-2206] + Cc1nc(NC(=O)N2CCC[C@H]2C(N)=O)sc1-c1ccnc(C(C)(C)C(F)(F)F)c1 [Alpelisib] (partner 2 µM)
How it was run: (§1)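 A single step with final 0.05% Triton X-100, 1% formaldehyde and 1 ug/ml Hoechst fixed the cells and stained nuclei 5 days after treatment. Lung cancer cell lines in 1536-well plates had been treated by pin tool the day after seeding with one drug alone or a fixed anchor-drug dose plus five library-drug doses (not always all listed) in √10 steps, and nuclei were counted on 4× images. Relative viability is the ratio of nuclei in treated wells to nuclei in vehicle wells, taken as the median of duplicate plates.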

Pictilisib + Linsitinib = compound: CS(=O)(=O)N1CCN(Cc2cc3nc(-c4cccc5[nH]ncc45)nc(N4CCOCC4)c3s2)CC1 [Pictilisib] + C[C@]1(O)C[C@@H](c2nc(-c3ccc4ccc(-c5ccccc5)nc4c3)c3c(N)nccn32)C1 [Linsitinib] (partner 1 µM)
How it was run: as §1

MK-2206 + Bortezomib = compound: NC1(c2ccc(-c3nc4ccn5c(=O)[nH]nc5c4cc3-c3ccccc3)cc2)CCC1 [MK-2206] + CC(C)C[C@H](NC(=O)[C@H](Cc1ccccc1)NC(=O)c1cnccn1)B(O)O [Bortezomib] (partner 0.002 µM)
How it was run: as §1

MK-2206 + Crizotinib = compound: NC1(c2ccc(-c3nc4ccn5c(=O)[nH]nc5c4cc3-c3ccccc3)cc2)CCC1 [MK-2206] + C[C@@H](Oc1cc(-c2cnn(C3CCNCC3)c2)cnc1N)c1c(Cl)ccc(F)c1Cl [Crizotinib] (partner 1 µM)
How it was run: as §1

Pictilisib + Phenformin = compound: CS(=O)(=O)N1CCN(Cc2cc3nc(-c4cccc5[nH]ncc45)nc(N4CCOCC4)c3s2)CC1 [Pictilisib] + N=C(N)NC(=N)NCCc1ccccc1 [Phenformin] (partner 250 µM)
How it was run: as §1

Cell Line	relative viability (MK-2206 + Alpelisib; first compound 0.01 µM)	relative viability (MK-2206 + Alpelisib; first compound 0.03162 µM)	relative viability (MK-2206 + Alpelisib; first compound 0.3162 µM)	relative viability (MK-2206 + Alpelisib; first compound 1 µM)	relative viability (Pictilisib + Linsitinib; first compound 0.02 µM)	relative viability (Pictilisib + Linsitinib; first compound 0.06325 µM)	relative viability (Pictilisib + Linsitinib; first compound 0.6325 µM)	relative viability (Pictilisib + Linsitinib; first compound 2 µM)	relative viability (MK-2206 + Bortezomib; first compound 0.01 µM)	relative viability (MK-2206 + Bortezomib; first compound 0.03162 µM)	relative viability (MK-2206 + Bortezomib; first compound 0.3162 µM)	relative viability (MK-2206 + Bortezomib; first compound 1 µM)	relative viability (MK-2206 + Crizotinib; first compound 0.01 µM)	relative viability (MK-2206 + Crizotinib; first compound 0.03162 µM)	relative viability (MK-2206 + Crizotinib; first compound 0.3162 µM)	relative viability (MK-2206 + Crizotinib; first compound 1 µM)	relative viability (Pictilisib + Phenformin; first compound 0.02 µM)	relative viability (Pictilisib + Phenformin; first compound 0.06325 µM)	relative viability (Pictilisib + Phenformin; first compound 0.6325 µM)	relative viability (Pictilisib + Phenformin; first compound 2 µM)
NCI-H322M	0.864	0.79	0.732	0.701	0.82	0.837	0.623	0.656	1.12	1.35	1.31	1.41	0.934	0.986	0.941	0.979	0.861	0.773	0.566	0.418
BEN	0.998	1.11	1.08	1.1	0.948	0.891	0.947	0.683	0.775	0.821	1	0.528	0.906	0.956	0.913	0.908	0.315	0.286	0.286	0.248
NCI-H2009	1.16	1.17	1.14	1.12	1.21	1.18	1.16	0.799	0.969	1.03	1.12	0.94	1.04	1.05	1.12	1.04	0.501	0.504	0.438	0.365
LC-2-ad	0.888	0.847	0.802	0.793	0.848	0.801	0.326	0.36	0.971	1.09	1.01	0.91	0.494	0.453	0.435	0.42	0.593	0.636	0.464	0.323
NCI-H1437	0.983	0.979	0.764	0.83	0.975	1.05	0.662	0.447	0.521	0.531	0.444	0.529	0.852	0.938	0.914	0.997	0.315	0.321	0.256	0.297
NCI-H3122	0.737	0.659	0.677	0.636	0.988	0.963	0.681	0.354	1.03	0.942	1.09	0.973	0.261	0.278	0.218	0.263	0.402	0.4	0.394	0.284
NCI-H1563	0.934	0.764	0.695	0.656	1.16	1.1	0.835	0.6	0.869	0.947	0.636	0.768	0.771	0.828	0.75	0.604	0.663	0.692	0.56	0.501
NCI-H727	0.636	0.571	0.404	0.456	0.267	0.318	0.228	0.258	0.901	0.828	0.587	0.54	0.809	0.903	0.666	0.568	0.564	0.529	0.554	0.38
NCI-H1734	0.709	0.625	0.451	0.521	0.901	0.797	0.615	0.332	0.847	1.02	0.66	0.725	0.772	0.725	0.468	0.521	0.427	0.362	0.271	0.197
HCC-15	0.836	0.884	0.859	0.832	0.852	0.928	0.87	0.762	0.98	1.07	1	0.811	0.824	0.823	0.868	0.769	0.506	0.504	0.346	0.261
NCI-H2405	0.762	0.877	0.728	0.673	1.05	0.96	0.7	0.5	0.96	1.1	0.958	0.987	0.79	0.858	0.83	0.786	0.4	0.386	0.364	0.23
NCI-H1993	0.73	0.668	0.663	0.652	0.774	0.71	0.636	0.655	1.08	1.2	0.769	0.613	0.842	0.86	0.729	0.68	0.527	0.504	0.626	0.573
NCI-H460	0.481	0.419	0.256	0.231	0.78	0.733	0.154	0.0347	1.03	1.2	0.97	1.06	0.86	0.905	0.855	0.893	0.549	0.534	0.266	0.0575
NCI-H1651	0.921	0.906	0.938	0.898	0.922	0.953	0.817	0.616	0.881	0.903	1.02	0.947	0.878	0.875	0.892	0.884	0.331	0.36	0.268	0.261
NCI-H1975	0.657	0.551	0.509	0.487	0.781	0.821	0.418	0.249	0.464	0.34	0.28	0.261	0.96	0.866	0.855	0.894	0.431	0.387	0.25	0.177
NCI-H2126	0.719	0.707	0.678	0.621	0.692	0.692	0.609	0.5	1.09	1.11	1.07	1.06	1.01	1.02	1.01	0.979	0.49	0.501	0.38	0.31
201T	0.97	1.05	0.958	0.958	0.989	1.05	0.902	0.82	1.06	1.13	1.17	1.16	1.02	1.07	1.03	1.01	0.476	0.443	0.409	0.3
HCC-78	0.372	0.336	0.256	0.21	0.508	0.413	0.318	0.226	0.415	0.606	0.475	0.395	0.348	0.33	0.289	0.286	0.587	0.705	0.427	0.312
SK-LU-1	1.13	0.979	0.993	0.876	1.21	1.13	0.987	0.628	1.28	1.22	1.01	0.747	0.941	0.912	0.964	0.877	0.648	0.509	0.393	0.308
H3255	0.694	0.748	0.53	0.6	1.04	0.823	0.84	0.467	0.718	0.977	0.718	0.564	0.833	0.913	0.729	0.616	0.399	0.344	0.334	0.318
LOU-NH91	0.73	0.796	0.667	0.682	1.02	0.918	0.798	0.557	0.466	0.521	0.47	0.443	0.709	0.727	0.72	0.715	0.773	0.812	0.609	0.461
NCI-H1666	0.957	0.89	0.729	0.735	0.744	0.696	0.608	0.431	0.832	0.801	0.613	0.5	0.965	1.12	0.789	0.892	0.576	0.615	0.522	0.462
NCI-H2023	0.517	0.598	0.472	0.405	0.508	0.414	0.208	0.264	0.958	0.838	0.778	0.612	0.614	0.686	0.481	0.387	0.43	0.376	0.275	0.169
COR-L 105	0.98	0.951	0.825	0.677	0.882	0.933	0.819	0.486	0.766	0.725	0.997	0.843	0.789	0.798	0.782	0.598	0.584	0.508	0.362	0.272
NCI-H838	1.02	1.02	1.01	0.943	1.05	0.891	0.891	0.448	0.822	0.916	0.836	0.751	0.857	0.812	0.834	0.765	0.541	0.628	0.329	0.224
SW 1573	0.763	0.817	0.607	0.613	0.844	0.709	0.618	0.41	0.948	1.04	0.834	0.629	0.814	0.762	0.493	0.748	0.387	0.318	0.215	0.166
